System: T cells isolated from mouse spleens
Assay: T cell proliferation inhibition (CFSE flow cytometry, anti-CD3/anti-CD28 stimulation)
Assay type: cell-based
Conditions: mouse spleen T cells, 3 days; for inhibition at 0.01 µM / inhibition at 0.1 µM / inhibition at 1 µM / inhibition at 10 µM / inhibition at 30 µM / inhibition at 50 µM: Mus musculus, T-cell, 72 h, read-out: Proliferation inhibition rate (%)
Procedure: To verify the T cell proliferation inhibitory effect of the compounds according to the present invention, the following experiment was performed based on flow cytometry analysis using carboxyfluorescein diacetate succinimidyl ester (CFSE), a fluorescent dye that binds to intracellular molecules via covalent bonds.
Spleens were extracted from 7-week-old C57BL/6 mice, ground, and then separated into single cells using a strainer (40 μm pore size, SPL). Red blood cells were removed using ACK (Ammonium-Chloride-Potassium) lysis buffer to isolate white blood cells.
Finally, using a MACS Magnetic Stand and LS column, T cells were isolated from the spleen.
The T cells isolated from the spleen were resuspended in 1 mL of free medium (RPMI-1640+200 U/mL penicillin+200 μg/mL streptomycin), and 0.3 μL of CFSE (10 mM) was added. The mixture was incubated at 37° C. for 5 minutes.
Free medium (10 mL) was added to stop the reaction, and the cells were centrifuged to obtain the cell pellet.
RPMI 1640 medium containing 10% FBS, 100 U/mL penicillin, 100 μg/mL streptomycin, and resuspended the cells. The cells were then seeded into a 96-well plate at a density of 2×10^5 cells per well and activated with CD3 and CD28 antibodies (0.5 μg/mL each) to activate T cells.
The compound diluted in DMSO was added at concentrations of 10 nM, 100 nM, 1 μM, 10 μM, 30 μM, and 50 μM, with three wells per concentration, and cultured at 37° C. and 5% CO2 for three days. The cells were then analyzed using a FACS Canto instrument.
The proliferation inhibition rate (%) was calculated using the following formula: […]

Row | Structure (SMILES) | Proliferation inhibition rate (%) (compound 10 nM) | Proliferation inhibition rate (%) (compound 100 nM) | Proliferation inhibition rate (%) (compound 1 μM) | Proliferation inhibition rate (%) (compound 10 μM) | Proliferation inhibition rate (%) (compound 30 μM) | Proliferation inhibition rate (%) (compound 50 μM) | inhibition at 0.01 µM (compound 10 nM) [%] | inhibition at 0.1 µM (compound 100 nM) [%] | inhibition at 1 µM (compound 1 μM) [%] | inhibition at 10 µM (compound 10 μM) [%] | inhibition at 30 µM (compound 30 μM) [%] | inhibition at 50 µM (compound 50 μM) [%] | Proliferation inhibition rate (%) (compound 10 nM, listed as KP-63, 0.01 µM) | Proliferation inhibition rate (%) (compound 100 nM, listed as KP-63, 0.1 µM) | Proliferation inhibition rate (%) (compound 1 μM, listed as KP-63, 1 µM) | Proliferation inhibition rate (%) (compound 10 μM, listed as KP-63, 10 µM)
1 | Nc1ncccc1C(=O)NCCCCCCCCCCCCNC1CCOC1 (centres unmarked) [Compound 128, 2-amino-N-(12-((tetrahydrofuran-3-yl)amino)dodecyl) nicotinamide] | −7.16 | 100.00 | 100.00 | 100.00 | 100.00 | 100.00 |  |  |  |  |  |  |  |  |  | 
2 | C[C@@H](C(=O)O)N(C=O)CCCCCCCCCCCCNC(=O)c1cccnc1N [Compound 130, N-(12-(2-aminonicotinamido)dodecyl)-N-formylalanine] |  |  |  |  |  |  | -4.33 | -5.22 | 13.6 | 85.4 | 100 | 100 |  |  |  | 
3 | CN1CCN(CCCCCCCCCCCCNC(=O)c2ccccc2C(=O)NC2CCCCC2)CC1 [Compound 191, N1-Cyclohexyl-N2-(12-(4-methylpiperazin-1-yl)dodecyl)phthalamide] |  |  |  |  |  |  | 0 | 0 | 7.39 | 93.3 | 100 | 100 |  |  |  | 
4 | CN1CCN(CCCCCCCCCCCCNC(=O)c2ccccc2-c2ncc[nH]2)CC1 [Compound 192, 2-(1H-imidazol-2-yl)-N-(12-(4-methylpiperazin-1-yl)dodecyl)benzamide] |  |  |  |  |  |  | -3.25 | -0.84 | 0.96 | 99.8 | 100 | 100 |  |  |  | 
5 | CN1CCN(CCCCCCCCCCCCNC(=O)c2ccccc2-n2cccc2)CC1 [Compound 193, N-(12-(4-methylpiperazin-1-yl)dodecyl)-2-(1H-pyrrol-1-yl)benzamide] |  |  |  |  |  |  | 5.02 | 4.87 | 12 | 100 | 100 | 100 |  |  |  | 
6 | CN1CCN(CCCCCCCCCCCCNC(=O)c2ccccc2-c2ccccc2)CC1 [Compound 194, N-(12-(4-methylpiperazin-1-yl)dodecyl)-[1,1′-biphenyl]-2-carboxamide] |  |  |  |  |  |  | -4.09 | -2.4 | -1.68 | 100 | 100 | 100 |  |  |  | 
7 | CN1CCN(CCCCCCCCCCCCNC(=O)c2ccnc(-c3ccccn3)c2)CC1 [Compound 195, N-(12-(4-methylpiperazin-1-yl)dodecyl)-[2,2′-bipyridine]-4-carboxamide] |  |  |  |  |  |  | 1.77 | 2.81 | -7.83 | 100 | 100 | 100 |  |  |  | 
8 | CN1CCN(CCCCCCCCCCCCNC(=O)c2ccccc2Cc2ccccc2)CC1 [Compound 196, 2-Benzyl-N-(12-(4-methylpiperazin-1-yl)dodecyl)benzamide] |  |  |  |  |  |  | 5.21 | 4.05 | 12.3 | 100 | 100 | 100 |  |  |  | 
9 | CN1CCN(CCCCCCCCCCCCNC(=O)c2cccc(N)c2I)CC1 [Compound 197, 3-Amino-2-iodo-N-(12-(4-methylpiperazin-1-yl)dodecyl)benzamide] |  |  |  |  |  |  | 7.81 | 10.3 | 16.4 | 98 | 100 | 100 |  |  |  | 
10 | CN1CCN(CCCCCCCCCCCCNC(=O)c2ccnc(Cl)c2Cl)CC1 [Compound 198, 2,3-Dichloro-N-(12-(4-methylpiperazin-1-yl)dodecyl)isonicotinamide] |  |  |  |  |  |  | 5.35 | 9.41 | 20.1 | 100 | 100 | 100 |  |  |  | 
11 | CN1CCN(CCCCCCCCCCCCNC(=O)c2ccncc2Cl)CC1 [Compound 199, 3-Chloro-N-(12-(4-methylpiperazin-1-yl)dodecyl)isonicotinamide] |  |  |  |  |  |  | 0 | 0 | 0 | 40 | 100 | 100 |  |  |  | 
12 | COc1ncccc1C(=O)NCCCCCCCCCCCCN1CCN(C)CC1 [Compound 200, 2-Methoxy-N-(12-(4-methylpiperazin-1-yl)dodecyl)nicotinamide] |  |  |  |  |  |  | 0 | 0 | 0 | 80 | 100 | 100 |  |  |  | 
13 | CN1CCN(CCCCCCCCCCCCNC(=O)c2c(Cl)cncc2Cl)CC1 [Compound 201, 3,5-Dichloro-N-(12-(4-methylpiperazin-1-yl)dodecyl)isonicotinamide] |  |  |  |  |  |  | 7.24 | 6.66 | 8.54 | 78.4 | 100 | 100 |  |  |  | 
14 | Cc1ccc(C(=O)NCCCCCCCCCCCCN2CCN(C)CC2)nc1 [Compound 202, 5-Methyl-N-(12-(4-methylpiperazin-1-yl)dodecyl)picolinamide] |  |  |  |  |  |  | 4.05 | 13.2 | 19 | 100 | 100 | 100 |  |  |  | 
15 | CN1CCN(CCCCCCCCCCCCNC(=O)c2ccc(F)cn2)CC1 [Compound 203, 5-Fluoro-N-(12-(4-methylpiperazin-1-yl)dodecyl)picolinamide] |  |  |  |  |  |  | -4.49 | 1.16 | 6.8 | 100 | 100 | 100 |  |  |  | 
16 | COc1ccc(C(=O)NCCCCCCCCCCCCN2CCN(C)CC2)nc1 [Compound 204, 5-methoxy-N-(12-(4-methylpiperazin-1-yl)dodecyl)picolinamide] |  |  |  |  |  |  | -2.6 | -0.14 | 12.3 | 95 | 100 | 100 |  |  |  | 
17 | Cc1nccn1-c1cccc(C(=O)NCCCCCCCCCCCCN2CCN(C)CC2)c1 [Compound 207, 3-(2-methyl-1H-imidazol-1-yl)-N-(12-(4-methylpiperazin-1-yl)dodecyl)benzamide] |  |  |  |  |  |  | -5.35 | -3.91 | -3.04 | 100 | 100 | 100 |  |  |  | 
18 | CN1CCN(CCCCCCCCCCCCNC(=O)c2ccc(-c3ncn[nH]3)cc2)CC1 [Compound 208, N-(12-(4-methylpiperazin-1-yl)dodecyl)-4-(1H-1,2,4-triazol-5-yl)benzamide] |  |  |  |  |  |  | 2.46 | -0.58 | 10.6 | 100 | 100 | 100 |  |  |  | 
19 | CN1CCN(CCCCCCCCCCCCNC(=O)c2ccncc2N)CC1 [Compound 209, 3-Amino-N-(12-(4-methylpiperazin-1-yl)dodecyl)isonicotinamide] |  |  |  |  |  |  | -1.45 | 1.59 | 18.8 | 84.5 | 100 | 100 |  |  |  | 
20 | CN1CCN(CCCCCCCCCCCCNC(=O)c2cccnc2O)CC1 [Compound 210, 2-Hydroxy-N-(12-(4-methylpiperazin-1-yl)dodecyl)nicotinamide] |  |  |  |  |  |  | -4.34 | -3.18 | 2.75 | 42.8 | 100 | 100 |  |  |  | 
21 | CN1CCN(CCCCCCCCCCCCNC(=O)c2cnccc2N)CC1 [Compound 211, 4-Amino-N-(12-(4-methylpiperazin-1-yl)dodecyl)nicotinamide] |  |  |  |  |  |  |  |  |  |  |  | 100 | −2.17 | −0.87 | 9.70 | 90.01

Reference: US20260183274A1, “PDK1 REGULATORY COMPOUND AND COMPOSITION CONTAINING THE SAME” (PROVIBIO CO., LTD., priority 2024, published 2026)
